The values below come from patent US8927533B2, “Thio derivatives bearing lactams as potent HDAC inhibitors and their uses as medicaments” (SIGMA-TAU Industrie Farmaceutiche Riunite S.p.A., priority 2011, dated 2015).

Like-named read-outs stand apart in the source and are kept apart here.

Series [1] has as its target HDAC4 (Homo sapiens, UniProt P56524). The series can be described thus: HDAC enzymatic assay, HDAC4. Format: biochemical. The protocol: (§1) Each compound was dissolved in DMSO, and progressively diluted solutions were used for testing. […] Upon its deacetylation, the fluorophore was released given rise to fluorescence emission which was detected by a fluorimeter, and the IC50 values of the compounds were determined by analyzing dose-response inhibition curves.

In series [2] the target is T1, HDAC6 (Homo sapiens, UniProt Q9UBN7).
T1 sequence (Q9UBN7 1-1215): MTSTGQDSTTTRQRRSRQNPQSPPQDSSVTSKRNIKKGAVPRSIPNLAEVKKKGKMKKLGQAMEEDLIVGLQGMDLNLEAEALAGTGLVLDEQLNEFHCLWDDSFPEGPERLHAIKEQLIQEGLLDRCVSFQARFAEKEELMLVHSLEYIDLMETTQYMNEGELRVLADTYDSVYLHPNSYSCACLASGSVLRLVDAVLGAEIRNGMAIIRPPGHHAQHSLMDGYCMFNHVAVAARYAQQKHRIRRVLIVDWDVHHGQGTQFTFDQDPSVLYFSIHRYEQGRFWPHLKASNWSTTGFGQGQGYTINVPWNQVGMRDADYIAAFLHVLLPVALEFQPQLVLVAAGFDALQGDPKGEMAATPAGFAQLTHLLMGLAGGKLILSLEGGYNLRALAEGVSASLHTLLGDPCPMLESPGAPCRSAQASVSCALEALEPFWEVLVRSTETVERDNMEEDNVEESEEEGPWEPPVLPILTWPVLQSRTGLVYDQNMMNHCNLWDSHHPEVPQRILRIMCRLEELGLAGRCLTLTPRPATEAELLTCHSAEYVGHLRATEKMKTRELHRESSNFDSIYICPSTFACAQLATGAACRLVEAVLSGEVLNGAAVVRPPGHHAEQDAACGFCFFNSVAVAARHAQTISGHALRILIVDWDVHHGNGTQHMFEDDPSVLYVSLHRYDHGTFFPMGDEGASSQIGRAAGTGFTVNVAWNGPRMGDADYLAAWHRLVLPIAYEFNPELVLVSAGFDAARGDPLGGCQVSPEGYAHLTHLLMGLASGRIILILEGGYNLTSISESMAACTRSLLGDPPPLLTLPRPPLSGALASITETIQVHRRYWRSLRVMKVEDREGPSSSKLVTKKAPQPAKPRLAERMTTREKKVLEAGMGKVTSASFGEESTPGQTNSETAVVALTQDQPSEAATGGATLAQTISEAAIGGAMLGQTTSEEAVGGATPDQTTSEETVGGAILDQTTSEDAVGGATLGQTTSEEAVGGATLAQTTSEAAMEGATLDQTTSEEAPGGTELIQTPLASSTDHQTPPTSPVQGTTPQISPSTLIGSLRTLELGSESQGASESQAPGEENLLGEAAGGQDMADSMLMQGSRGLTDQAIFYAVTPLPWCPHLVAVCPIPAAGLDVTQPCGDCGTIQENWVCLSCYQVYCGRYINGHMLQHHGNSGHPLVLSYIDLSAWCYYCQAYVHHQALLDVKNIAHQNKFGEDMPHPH
The series can be described thus: HDAC enzymatic assay, HDAC6. It is filed as biochemical. The method, then:
as §1

Series [3] addresses T2, HDAC8 (Homo sapiens, UniProt Q9BY41).
T2 sequence (Q9BY41 1-377): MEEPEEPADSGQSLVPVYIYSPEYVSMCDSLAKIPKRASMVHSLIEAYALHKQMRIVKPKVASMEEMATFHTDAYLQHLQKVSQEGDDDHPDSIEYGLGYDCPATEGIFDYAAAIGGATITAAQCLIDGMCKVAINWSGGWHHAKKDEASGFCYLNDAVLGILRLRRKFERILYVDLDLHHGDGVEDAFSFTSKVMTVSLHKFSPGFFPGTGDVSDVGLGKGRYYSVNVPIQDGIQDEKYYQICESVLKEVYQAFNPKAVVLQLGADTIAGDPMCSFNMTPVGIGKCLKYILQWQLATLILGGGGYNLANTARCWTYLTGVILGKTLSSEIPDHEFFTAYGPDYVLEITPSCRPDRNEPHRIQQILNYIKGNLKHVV
As to the kind of experiment: HDAC enzymatic assay, HDAC8. It is filed as biochemical. The protocol: as §1

Series [4] has as its target T3, HDAC11 (Homo sapiens, UniProt Q96DB2).
T3 sequence (Q96DB2 1-347): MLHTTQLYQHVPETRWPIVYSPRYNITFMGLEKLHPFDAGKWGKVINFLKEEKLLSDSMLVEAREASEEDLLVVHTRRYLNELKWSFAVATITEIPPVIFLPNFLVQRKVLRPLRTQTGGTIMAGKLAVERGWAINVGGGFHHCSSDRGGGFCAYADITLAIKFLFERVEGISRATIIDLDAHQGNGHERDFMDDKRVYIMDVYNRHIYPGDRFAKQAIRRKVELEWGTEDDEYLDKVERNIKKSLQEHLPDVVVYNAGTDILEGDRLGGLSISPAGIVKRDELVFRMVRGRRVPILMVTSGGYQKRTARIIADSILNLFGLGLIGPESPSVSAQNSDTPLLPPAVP
As to the kind of experiment: HDAC enzymatic assay, HDAC11. Format: biochemical. The method, then: as §1

The subject of series [5] is HCT116 colon cancer. As to the kind of experiment: Antitumour activity, HCT116 xenograft, oral (Example 49). It is filed as in vivo, mice. Conditions: 60 mg/10 ml/kg p.o., PEG200/DMSO/Cremophor EL. From the text: (§2) The experiment of example 48 was repeated with another compound on mice animal model developing HCT116 colon cancer as described above or A2780 ovarian cancer, and administering the drugs solubilised in orally in PEG200/DMSO/Cremophor EL (Sigma): 85/10/5 (volume percentage).

For series [6], the system named is A2780 ovarian cancer. The series can be described thus: Antitumour activity, A2780 xenograft, oral (Example 49). It is filed as in vivo, mice. The following applies: 110 mg/10 ml/kg p.o., PEG200/DMSO/Cremophor EL.
Excerpt: as §2

Series [7] deals with NCI-H460 non-small cell lung carcinoma cells. As to the kind of experiment: Cytotoxicity, sulphorodamine B, H460. The following applies: Homo sapiens, NCI-H460, read-out: H460 cell line IC50 (μM).
Protocol: (§3) They were allowed to attach and recover for at least 24 h.
(§4) The plates were incubated for 24 h at 37° C., after which they were washed 3 times by removal of the supernatant and addition of PBS. The plates were then incubated for further 48 h at 37° C. 200 μl PBS and 50 μl of cold 80% TCA were added and the plates were incubated on ice for at least 1 h. TCA was removed and the plates were washed 3 times by immersion in distilled-water. They were then dried on paper at 40° C. for 5 min. 200 μl of 0.4% sulphorodamine B in 1% acetic acid were added. The plates were incubated at room temperature for further 30 min. Sulphorodamine B was removed, and the plates were washed 3 times by immersion in 1% acetic acid and were dried on paper and at 40° C. for 5 min. Then 200 μl Tris 10 mM were added. The plates were kept under magnetic stirring for 20 min. Cell survival was determined by means of optical density by a Multiskan spectrofluorimeter at 540 nm. The amount of cells killed was calculated as the percentage decrease in sulphorodamine B binding compared to control cultures.
Series [8] relates to HCT116 colon cancer cells. As to the kind of experiment: Cytotoxicity, sulphorodamine B, HCT116. Conditions: Homo sapiens, HCT-116, read-out: HCT116 cell line IC50 (μM).
Protocol: as §3, §4
The mark [9] stands for this setting: Table 2, thio (SH) vs hydroxamate (CONHOH) MBG analogues, read-out: HDAC isoforms, 4 (IC50).
[10] abbreviates: Table 2, thio (SH) vs hydroxamate (CONHOH) MBG analogues, read-out: HDAC isoforms, 6 (IC50).
Setting [11] is: Table 2, thio (SH) vs hydroxamate (CONHOH) MBG analogues, read-out: HDAC isoforms, 8 (IC50).
Where [12] appears, read: Table 2, thio (SH) vs hydroxamate (CONHOH) MBG analogues, read-out: HDAC isoforms, 11 (IC50).
[13] abbreviates: fluorogenic tetrapeptide RHKKAc substrate 10 μM, read-out: HDAC isoforms IC50 (nM), 4.
Where [14] appears, read: fluorogenic tetrapeptide RHKKAc substrate 10 μM, read-out: HDAC isoforms IC50 (nM), 6.
Setting [15] is: fluorogenic tetrapeptide RHKKAc substrate 10 μM, read-out: HDAC isoforms IC50 (nM), 8.
[16] abbreviates: fluorogenic tetrapeptide RHKKAc substrate 10 μM, read-out: HDAC isoforms IC50 (nM), 11.

Sequence of HDAC4 (P56524 whole entry): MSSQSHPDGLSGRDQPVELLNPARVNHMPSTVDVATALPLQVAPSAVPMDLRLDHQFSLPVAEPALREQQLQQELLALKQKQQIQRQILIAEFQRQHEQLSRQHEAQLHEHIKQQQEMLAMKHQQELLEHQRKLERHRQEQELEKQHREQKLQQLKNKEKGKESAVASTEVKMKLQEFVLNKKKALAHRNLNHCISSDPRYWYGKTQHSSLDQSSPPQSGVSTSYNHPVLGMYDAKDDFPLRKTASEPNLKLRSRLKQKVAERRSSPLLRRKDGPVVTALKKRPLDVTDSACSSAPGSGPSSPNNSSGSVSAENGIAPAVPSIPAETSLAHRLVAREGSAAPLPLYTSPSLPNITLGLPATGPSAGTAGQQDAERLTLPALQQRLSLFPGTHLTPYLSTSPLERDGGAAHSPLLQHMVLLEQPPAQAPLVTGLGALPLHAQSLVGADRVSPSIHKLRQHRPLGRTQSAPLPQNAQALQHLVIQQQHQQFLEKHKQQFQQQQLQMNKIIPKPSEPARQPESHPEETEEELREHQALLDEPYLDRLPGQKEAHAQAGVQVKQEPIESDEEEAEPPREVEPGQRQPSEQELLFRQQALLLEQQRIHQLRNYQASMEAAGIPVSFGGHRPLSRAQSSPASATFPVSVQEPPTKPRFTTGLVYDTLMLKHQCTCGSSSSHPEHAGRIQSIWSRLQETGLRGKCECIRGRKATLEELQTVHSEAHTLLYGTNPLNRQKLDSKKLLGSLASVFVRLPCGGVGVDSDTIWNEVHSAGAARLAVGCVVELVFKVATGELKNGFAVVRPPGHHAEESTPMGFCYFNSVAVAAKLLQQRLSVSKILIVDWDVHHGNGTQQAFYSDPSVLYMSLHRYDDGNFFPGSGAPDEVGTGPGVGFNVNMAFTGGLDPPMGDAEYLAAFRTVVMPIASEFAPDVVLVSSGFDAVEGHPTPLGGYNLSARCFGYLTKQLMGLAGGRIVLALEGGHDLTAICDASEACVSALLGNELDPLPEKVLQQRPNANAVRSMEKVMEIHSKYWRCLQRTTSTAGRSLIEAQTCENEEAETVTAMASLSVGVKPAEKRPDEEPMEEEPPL

In general, IC50 refers to the point on the concentration scale where inhibition reaches its midpoint. In the case of `CC(=O)SCCCCC[C@H](NC(=O)[C@H]1CCC(=O)N1)C(=O)Nc1ccccc1` [Example 21, Thioacetic acid S—{(S)-6-[((R)-5-oxo-pyrrolidine-2-carbonyl)-amino]-6-phenylcarbamoyl-hexyl}ester], the IC50 was < 50 nM in series [1] (setting [9]); < 50 nM in series [2] (setting [10]); 100 to 500 nM in series [3] (setting [11]); < 50 nM in series [4] (setting [12]); < 0.5 µM in series [7]. Also, the BWL % in series [5] was 1%; in series [6] it was 7%. The TVI % was 62% in series [5] and 89% in series [6].
Take `O=C1NC[C@@H](c2ccccc2)[C@@H]1C(=O)N[C@@H](CCCCCS)C(=O)Nc1ccccc1` [Example 31, (3S,4R)-2-Oxo-4-phenyl-pyrrolidine-3-carboxylic acid ((S)-6-mercapto-1-phenylcarbamoyl-hexyl)-amide]: the IC50 in series [1] (setting [9]), in series [1] (setting [13]), in series [2] (setting [10]), in series [2] (setting [14]), in series [3] (setting [11]) and in series [3] (setting [15]) was < 50 nM in each case. Further, the IC50 in series [4] (setting [12]) is < 50 nM; in series [4] (setting [16]), < 50 nM; in series [8], 1 to 10 µM.
Turning to `O=C1CC[C@H](C(=O)N[C@@H](CCCCCS)C(=O)Nc2ccccc2)N1` [Example 33, (R)-5-Oxo-pyrrolidine-2-carboxylic acid ((S)-6-mercapto-1-phenylcarbamoyl-hexyl)amide], the IC50 in series [1] (setting [9]) was 50 to 100 nM; in series [1] (setting [13]), 50 to 100 nM; in series [2] (setting [10]), < 50 nM; in series [2] (setting [14]), < 50 nM; in series [3] (setting [11]), 100 to 500 nM; in series [3] (setting [15]), 100 to 500 nM. For the same compound, the IC50 is < 50 nM in series [4] (setting [12]), < 50 nM in series [4] (setting [16]) and 1 to 10 µM in series [8].
